The results in this text go back to US8309590B2, “Triazol compounds for treating biofilm formation” (Novartis AG, priority 2007, dated 2012).

One data set deals with P. aeruginosa. Briefly: planktonic growth in borosilicate glass tube model (OD 570 nm). The class given is cell-based, Pseudomonas aeruginosa. How it is done: Growth with or without Compound I, e.g. at concentrations achieved in peripheral blood, under aerobic and anaerobic conditions with no added iron, 10, 30 and 50 μM iron. […] The effect of bacterial growth is determined using a standard method that involves inoculation of aliquots, e.g. 500 μL, of around 10^6 bacteria in minimal media with succinate into borosilicate glass tubes, e.g. 12×75 mm, that are them incubated under aerobic and anaerobic conditions, e.g. at 37° C. Each experiment is undertaken in triplicate and each borosilicate tube is removed at regular intervals, e.g. 0, 4, 8, 12, 16, 20 and 24 hours and the optical density at 570 nm of the culture used as an indicator of the level of growth. Anaerobic culture conditions are generated using the Anaerogen™ (Oxoid) system. For anaerobic experiments, parallel cultures are set up so that cultures are not transiently exposed to oxygen, i.e. seven parallel cultures to allow sampling at the required times. Different concentrations of Compound I are assessed for their effect on aerobic and anaerobic (A) growth and (B) biofilm levels. Medium used is MMS supplemented with 0 or 10 μM FeCl3, as indicated (37° C., 24 h). Values shown represent the mean±SD of one representative experiment with 3 tubes per experiment. Different concentrations of Compound I are assessed for their effect on aerobic and anaerobic (A) growth and (B) biofilm levels. Medium used is MMS supplemented with 10 μM FeCl3 (37° C., 24 h). […] The effects of Compound I on planktonic growth and biofilm development re assessed in the short-term borosilicate glass tube biofilm model. In this model, a biofilm is grown on a glass surface, and this is subsequently stained and solubilized. The optical density (OD: 570 nm) of the solution corresponds with the level of biofilm development. Using this model, bacterial growth and biofilm levels are determined after incubation (24 h, 37° C.) in minimal medium supplemented with succinate (MMS)+10 μM FeCl3 (aerobic and anaerobic atmospheres).

Another data set relates to P. aeruginosa biofilm. Kind of data set: short-term borosilicate glass tube biofilm model (OD 570 nm). The data set is classed as cell-based, Pseudomonas aeruginosa. The protocol:
For this purpose, two short-term biofilm models relevant for the early stages of biofilm formation are used: borosilicate tubes and cover-slip method. In both models, the biofilm growth is studied with or without Compound I under either aerobic or anaerobic conditions and with or without added iron, i.e. 0, 10, 30 and 50 μM iron. The anti-biofilm effects of Compound I are looked at according to the standard methods, i.e. optical density, confocal imaging software, […] program, to allow analysis of biofilm structure in a 3 dimensional perspective. The imaging system and use of BacLight LIVE/DEAD staining (Molecular Probes) in the cover-slip experiments allow to look at the effects on both bacterial microcolonies and biofilm structure. Different concentrations of Compound I are assessed for their effect on aerobic and anaerobic (A) growth and (B) biofilm levels. Medium used is MMS supplemented with 0 or 10 μM FeCl3, as indicated (37° C., 24 h). Values shown represent the mean±SD of one representative experiment with 3 tubes per experiment. Different concentrations of Compound I are assessed for their effect on aerobic and anaerobic (A) growth and (B) biofilm levels. Medium used is MMS supplemented with 10 μM FeCl3 (37° C., 24 h). […] The effect of Compound I (1339 μM) on biofilm development in different iron concentrations, without Compound I (black columns) and with Compound I, 1339 μM (grey columns). […] The effects of Compound I on planktonic growth and biofilm development re assessed in the short-term borosilicate glass tube biofilm model. In this model, a biofilm is grown on a glass surface, and this is subsequently stained and solubilized. The optical density (OD: 570 nm) of the solution corresponds with the level of biofilm development. Using this model, bacterial growth and biofilm levels are determined after incubation (24 h, 37° C.) in minimal medium supplemented with succinate (MMS)+10 μM FeCl3 (aerobic and anaerobic atmospheres). […] It is investigated whether Compound I is impairing anaerobic biofilm development by directly reducing the level of iron in the medium, or whether it is acting by an iron-independent mechanism. Compound I at a concentration of 1339 μM is tested to see if it continued to impair anaerobic biofilm development as the concentration of iron is increased in the culture medium.

For data set [1], the system named is P. aeruginosa strain PAO1. Kind of data set: MIC of tobramycin and colistin with and without Compound I. The settings on record: Compound I 1339 μM, MMS + 10 μM FeCl3, aerobic and anaerobic atmospheres. The data set is classed as cell-based, Pseudomonas aeruginosa. How it is done:
The minimal inhibitory concentrations (MICs) of the aminoglycosides gentamycin and tobramycin are determined under aerobic and anaerobic conditions in the presence of no added iron or 30 μM iron, with or without Compound I, e.g. and/or with varying concentrations of Compound I). MICs are determined in MMS+10 μM FeCl3 supplemented with Compound I (1339 μM) (solid line) and without Compound I (dashed line). Values shown represent the mean±SD of a representative experiment with each condition tested in duplicate. The […] inhibitory concentrations (MICS) of two antibiotics commonly used antibiotics to treat CF individuals, tobramycin and colistin, are tested against P. aeruginosa. This is done in MMS+10 μM FeCl3 with and without Compound I (1339 μM) under aerobic and anaerobic atmospheres (FIG. 4).

Data set [2] concerns phospholipase C production by P. aeruginosa. Briefly: virulence factor production: phospholipase C. The class given is cell-based, Pseudomonas aeruginosa. Particulars: Compound I 1339 μM, MMS + 10 μM FeCl3, anaerobic, 24 h.
Data set [3] deals with exotoxin A (ETA) production by P. aeruginosa. Briefly: virulence factor production: exotoxin A. The settings on record: Compound I 1339 μM, MMS + 10 μM FeCl3, anaerobic, 24 h. The data set is classed as cell-based, Pseudomonas aeruginosa.
The next data set in a line: solubility in MMS medium. The data set is classed as physicochemical. The settings on record: MMS medium (pH 7.0).
The mark [4] stands for this setting: Compound I 0-100 μM, aerobic, MMS + 10 μM FeCl3, 24 h, 37° C.
Setting [5] is: Compound I 0-100 μM, anaerobic, MMS + 10 μM FeCl3, 24 h, 37° C.
Where [6] appears, read: higher concentration of Compound I (up to 6695 μM, via PEG 400), aerobic.
[7] abbreviates: higher concentration of Compound I (up to 6695 μM, via PEG 400), anaerobic, P<0.05.

On to `O=C(O)c1ccc(-n2nc(-c3ccccc3O)nc2-c2ccccc2O)cc1` [Compound I, 4-[3,5-Bis-(2-hydroxyphenyl)-[1,2,4]-triazol-1-yl]benzoic acid], for which the “effect on aerobic growth” value with P. aeruginosa (setting [4]) was “does not impair”. For the same compound, the “effect on anaerobic growth” value in the data set with P. aeruginosa (setting [5]) is on record as “does not impair”. Besides, the “effect on growth, higher concentration, aerobic” value in the data set with P. aeruginosa (setting [6]) is on record as “not under aerobic conditions”. Also, the “effect on growth, higher concentration, anaerobic” value in the data set with P. aeruginosa (setting [7]) is given as “significantly impair”. Further, the “effect on aerobic biofilm development” value with P. aeruginosa biofilm (setting [4]) is given as “does not impair”. Besides, the “effect on anaerobic biofilm development” value in the data set on P. aeruginosa biofilm (setting [5]) was “does not impair”. In addition, the “impairment of anaerobic biofilm development as iron concentration is increased” value with P. aeruginosa biofilm (Compound I 1339 μM, anaerobic, increasing iron levels in culture medium) is recorded as “becomes less effective”. Besides, the “effect on biofilm levels, higher concentration, aerobic” value in the data set with P. aeruginosa biofilm (setting [6]) is “not under aerobic conditions”. The “effect on biofilm levels, higher concentration, anaerobic” value in the data set on P. aeruginosa biofilm (setting [7]) was “significantly impair”. Further, in data set [1], the “effect on MIC of colistin” value is “does not alter the MIC” and the “effect on MIC of tobramycin” value is “does not alter the MIC”. For the same compound, the “effect on iron-induced increase of phospholipase C production” value in data set [2] is listed as “increase is negated”. In addition, the “effect on iron-induced increase of exotoxin A (ETA) production” value in data set [3] is recorded as “increase is negated”. The “solubility in MMS medium” value in the data set “solubility in MMS medium” is on record as “low solubility”.
